Source: patent US10881642B2, “Autophagy enhancer and use thereof” (Industry-Academic Cooperation Foundation, Yonsei University, priority 2016, dated 2021)

Legend:
HeLa cells = experiment: Viability of Hela cells; assay type: cell-based; details: 50-100 μM, 48 hrs
Method: FIG. 10 is the result of the experiments using compound of formula 2 (hereinafter referred to as MSL-7) of the present disclosure as an autophagic enhancer. FIG. 10A is the result of immuneblot using the antibodies indicated using Hela cells treated with MSL or MSL-7. FIG. 10B is the result of measuring the viability of Hela cells treated with vehicle control or various concentration of MSL-7 (50-100 μM) for 48 hrs. FIG. 10C is the result of DAPI stained nuclei of TFEB-GFP HeLa cells which were treated with vehicle control or MSL-7 for 4 hrs. The graph indicates the percentage of TFEB translocated into the nuclei. Error bars, S.D. *, P<0.05; **, P<0.01; ***, P<0.001.
Screening of autophagy enhancer. […] Firefly luciferase was determined after mixing 5 μl of lysate with 25 μl of Luciferase Assay Reagent II. Renilla luciferase was then determined after further addition of 20 ul of Stop&Glo Reagent. […] Cytotoxicity was determined by the measurement of LDH release in cell culture media using the LDH kit (Roche), according to the protocol from the manufacturer. […] Imaging and image quantification. […] Formation of acidic vesicular organelles was quantitated by staining the cells with acridine orange (Invitrogen, 5 ug/ml, 10 min). […] Cells or tissues were solubilized in lysis buffer supplemented with protease and phosphatase inhibitors and protein concentration was measured by the Bradford method. […]

[1] = system: primary peritoneal macrophages; experiment: Mitochondrial ROS (MitoSOX) and potential (MitoTracker) by FACS; assay type: cell-based, C57BL/6 mice; details: PA plus LPS

| SMILES | cellular toxicity (HeLa cells) | mitochondrial ROS content (MitoSox) [1] | mitochondrial potential (MitoTracker Red) [1] |
| --- | --- | --- | --- |
| COc1oc(-c2ccccc2Cl)nc1S(=O)(=O)c1ccccc1 [MSL-7, 2-(2-chlorophenyl)-5-methoxy-4-(phenylsulfonyl) oxazole] | without cellular toxicity | – | – |
| CSc1oc(-c2ccccc2)nc1S(=O)(=O)c1ccc(F)cc1 [MSL] | – | significantly reduced | significantly reduced |
